What was measured:
human GPR40 = target: T1, human GPR40 (Homo sapiens, UniProt O14842); assay: GPR40 antagonist activity with changes in intracellular calcium concentration as index (NFAT-luciferase reporter, CHO(dhfr-)/GPR40-NFAT-Luc cells); format: cell-based; details: CHO cell line expressing human GPR40, NFAT-Luc reporter; GPR40 agonist 3-(4-((6-benzyloxy-2',6'-dimethyl-biphenyl-3-yl)methoxy)phenyl)propanoic acid 40 nM; 4 hr culture; 0.1% fatty acid-free BSA
T1 construct: expressed in transfected cells; host or cells: CHO(dhfr-) cells: line CHO-hGPR40 No. 104 of WO2004/041266, with a stably expressed NFAT-TA-Luc reporter (CHO(dhfr-)/GPR40-NFAT-Luc)
T1 sequence (O14842 whole entry): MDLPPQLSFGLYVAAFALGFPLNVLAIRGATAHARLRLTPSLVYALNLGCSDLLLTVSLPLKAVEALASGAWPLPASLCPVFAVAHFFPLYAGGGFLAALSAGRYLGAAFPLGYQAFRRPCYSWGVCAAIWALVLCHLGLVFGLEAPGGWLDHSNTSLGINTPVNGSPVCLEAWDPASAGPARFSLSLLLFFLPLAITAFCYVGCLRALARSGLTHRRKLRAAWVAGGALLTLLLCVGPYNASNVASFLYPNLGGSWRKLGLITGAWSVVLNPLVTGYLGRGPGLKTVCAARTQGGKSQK
Description: Evaluation of GPR40 antagonist activity with changes in intracellular calcium concentration as index
An assay system of GPR40 antagonist was established as follows. In this assay system, as the GPR40 agonist, 3-(4-((6-benzyloxy-2′,6′-dimethyl-biphenyl-3-yl)methoxy)phenyl)propanoic acid (compound described in Example 340 of WO2004/041266) was used.
First, NFAT-TA was cut out from pNFAT-TA-Luc (manufactured by BD Bioscience Clontech) with HindIII and NheI, the recovered fragment was inserted into pGL3 basic neo digested with HindIII and NheI to give plasmid:pGL3 basic neo NFAT-TA-Luc.
This plasmid was used for “the CHO cell line (CHO-hGPR40 No. 104), which was made to express human GPR40” described in WO2004/041266, and a cell line CHO(dhfr-)/GPR40-NFAT-Luc, wherein a reporter gene was stably expressed by a method known per se, was prepared.
This cell line was diluted with a medium (nucleic acid-free MEM (Minimum Essential Medium)—α medium added with dialyzed FBS (Fetal Bovine Serum) to a final concentration of 10%) in such a manner that 2×10^4 cells/100 μl would be contained, dispensed to a white walled 96 well plate (manufactured by Coster) by 100 μl per well, and cultured overnight in a CO2 incubator. Then the medium was removed by suction from the 96 well plate, and a 10 mM test compound-dimethyl sulfoxide (manufactured by Wako Pure Chemical Industries, Ltd.) solution diluted with a medium (nucleic acid-free MEM—α medium added with bovine serum albumin (BSA) free of fatty acid to a final concentration of 0.1%) to each concentration was added by 50 μl per well. Further, 3-(4-((6-benzyloxy-2′,6′-dimethyl-biphenyl-3-yl)methoxy)phenyl)propanoic acid diluted with a medium (nucleic acid-free MEM-α (medium added with BSA free of fatty acid to a final concentration of 0.1%) to a final concentration of 40 nM was added to the 96 well plate by 50 μl per well.
After culture in a CO2 incubator for 4 hr, the culture medium was removed from the 96 well plate. Then, PicaGene (manufactured by TOYO INK MFG. CO., LTD.) was added to the 96 well plate, and the luciferase activity was determined using PerkinElmer ARVO (trade name, manufactured by PerkinElmer), based on which changes in the intracellular calcium concentration were evaluated. After assay of luciferase activity, nonlinear regression analysis was performed using PRISM 3 (trade name, manufactured by GraphPad) and IC50 value was calculated with changes in the intracellular calcium concentration as an index.
In the same manner as in Experimental Example 1, the IC50 value of the compound of the present invention was calculated.

| IC50 (human GPR40) | melting point | Compound |
| --- | --- | --- |
| < 100 nM | 190 to 191 °C | CCCOc1ccc(-n2c(NCc3ccc(C(C)(C)C)cc3)nc3cc(Cl)ccc32)cc1 [Example 83, N-(4-tert-Butylbenzyl)-5-chloro-1-(4-propoxyphenyl)-1H-benzimidazol-2-amine] |
| < 100 nM | 109 to 110 °C | COCOc1ccc(-n2c(SCc3ccc(Cl)cc3)nc3ccc(Cl)cc32)cc1 [Example 7, 6-Chloro-2-[(4-chlorobenzyl)thio]-1-[4-(methoxymethoxy)phenyl]-1H-benzimidazole] |
| < 100 nM | 186 to 187 °C | CCOc1ccc(-n2c(NCc3ccc(C(C)(C)C)cc3)nc3cc(Cl)c(Cl)cc32)cc1 [Example 93, N-(4-tert-Butylbenzyl)-5,6-dichloro-1-(4-ethoxyphenyl)-1H-benzimidazol-2-amine] |
| < 100 nM | 141 to 142 °C | CCOc1ccc(-n2c(NCc3ccc(Cl)cc3)nc3cc(Cl)c(Cl)cc32)cc1 [Example 94, 5,6-Dichloro-N-(4-chlorobenzyl)-1-(4-ethoxyphenyl)-1H-benzimidazol-2-amine] |
| < 100 nM | 149 to 150 °C | CC(C)Oc1ccc(-n2c(SCc3ccc(Cl)cc3)nc3cc(Cl)c(Cl)cc32)cc1 [Example 110, 5,6-Dichloro-2-[(4-chlorobenzyl)thio]-1-(4-isopropoxyphenyl)-1H-benzimidazole] |
| < 100 nM | 151 to 152 °C | CC(C)(C)c1ccc(CNc2nc3ccc(Cl)cc3n2-c2ccc(OCC(F)(F)F)cc2)cc1 [Example 78, N-(4-tert-Butylbenzyl)-6-chloro-1-[4-(2,2,2-trifluoroethoxy)phenyl]-1H-benzimidazol-2-amine] |
| < 100 nM | 109 to 110 °C | CCOc1ccc(-n2c(NCc3ccc(Cl)cc3)nc3cc(Cl)ccc32)cc1 [Example 82, 5-Chloro-N-(4-chlorobenzyl)-1-(4-ethoxyphenyl)-1H-benzimidazol-2-amine] |
| < 100 nM | 103 to 104 °C | CCOc1ccc(-n2c(SCc3ccc(C(F)(F)F)cc3)nc3ccc(Cl)cc32)cc1 [Example 33, 6-Chloro-1-(4-ethoxyphenyl)-2-{[4-(trifluoromethyl)benzyl]thio}-1H-benzimidazole] |
| < 100 nM | 166 to 167 °C | CCCOc1ccc(-n2c(NCc3ccc(Cl)cc3)nc3cc(Cl)c(Cl)cc32)cc1 [Example 98, 5,6-Dichloro-N-(4-chlorobenzyl)-1-(4-propoxyphenyl)-1H-benzimidazol-2-amine] |
| < 100 nM | 130 to 133 °C | CC(C)(C)c1ccc(CNc2nc3ccc(Cl)cc3n2-c2ccc(OC(F)(F)C(F)F)cc2)cc1.Cl [Example 106, N-(4-tert-Butylbenzyl)-6-chloro-1-[4-(1,1,2,2-tetrafluoroethoxy)phenyl]-1H-benzimidazol-2-amine hydrochloride] |
| < 100 nM | 158 to 159 °C | CC(C)(C)c1ccc(CNc2nc3cc(Cl)c(Cl)cc3n2-c2ccc(OC(F)(F)F)cc2)cc1 [Example 105, N-(4-tert-butylbenzyl)-5,6-dichloro-1-[4-(trifluoromethoxy)phenyl]-1H-benzimidazol-2-amine] |
| < 100 nM | 119 to 120 °C | CCCOc1ccc(-n2c(SCc3ccc(Cl)cc3)nc3cc(Cl)c(Cl)cc32)cc1 [Example 112, 5,6-Dichloro-2-[(4-chlorobenzyl)thio]-1-(4-propoxyphenyl)-1H-benzimidazole] |
| < 100 nM | 92 to 93 °C | CCOc1ccc(-n2c(NCc3ccc(Br)cc3)nc3cc(Cl)c(Cl)cc32)cc1 [Example 95, N-(4-Bromobenzyl)-5,6-dichloro-1-(4-ethoxyphenyl)-1H-benzimidazol-2-amine] |
| < 100 nM | 181 to 182 °C | CC(C)(C)c1ccc(CNc2nc3ccc(Cl)cc3n2-c2ccc(OC(F)(F)F)cc2)cc1 [Example 80, N-(4-tert-Butylbenzyl)-6-chloro-1-[4-(trifluoromethoxy)phenyl]-1H-benzimidazol-2-amine] |
| < 100 nM | 102 to 103 °C | CCCOc1ccc(-n2c(SCc3ccc(Cl)cc3)nc3ccc(Cl)cc32)cc1 [Example 12, 6-Chloro-2-[(4-chlorobenzyl)thio]-1-(4-propoxyphenyl)-1H-benzimidazole] |
| < 100 nM | 98 to 100 °C | CCCOc1ccc(-n2c(NCc3ccc(C(C)(C)C)cc3)nc3ccc(Cl)cc32)cc1 [Example 73, N-(4-tert-Butylbenzyl)-6-chloro-1-(4-propoxyphenyl)-1H-benzimidazol-2-amine] |
| < 100 nM | 208 to 209 °C | COc1ccc(-n2c(NCc3ccc(C(C)(C)C)cc3)nc3ccc(Cl)cc32)cc1 [Example 72, N-(4-tert-Butylbenzyl)-6-chloro-1-(4-methoxyphenyl)-1H-benzimidazol-2-amine] |
| < 100 nM | 141 to 142 °C | COc1ccc(-n2c(SCc3ccc(Cl)cc3)nc3cc(Cl)c(Cl)cc32)cc1 [Example 108, 5,6-Dichloro-2-[(4-chlorobenzyl)thio]-1-(4-methoxyphenyl)-1H-benzimidazole] |
| < 100 nM | 135 to 136 °C | CCOc1ccc(-n2c(NCc3ccc(Cl)cc3)nc3ccc(Cl)cc32)cc1 [Example 47, 6-Chloro-N-(4-chlorobenzyl)-1-(4-ethoxyphenyl)-1H-benzimidazol-2-amine] |
| < 100 nM | 123 to 124 °C | COCOc1ccc(-n2c(SCc3ccc(Br)cc3)nc3ccc(Cl)cc32)cc1 [Example 8, 2-[(4-Bromobenzyl)thio]-6-chloro-1-[4-(methoxymethoxy)phenyl]-1H-benzimidazole] |
| < 100 nM | 139 to 140 °C | FC(F)C(F)(F)Oc1ccc(-n2c(SCc3ccc(Cl)cc3)nc3ccc(Cl)cc32)cc1 [Example 135, 6-Chloro-2-[(4-chlorobenzyl)thio]-1-[4-(1,1,2,2-tetrafluoroethoxy)phenyl]-1H-benzimidazole] |
| < 100 nM | 129 to 130 °C | Clc1ccc(CSc2nc3ccc(Cl)cc3n2-c2ccc(C3OCCO3)cc2)cc1 [Example 132, 6-Chloro-2-[(4-chlorobenzyl)thio]-1-[4-(1,3-dioxolan-2-yl)phenyl]-1H-benzimidazole] |
| < 100 nM |  | COc1ccc(-n2c(NCc3ccc(C(C)(C)C)cc3)nc3cc(Cl)c(Cl)cc32)cc1 [Example 92, N-(4-tert-Butylbenzyl)-5,6-dichloro-1-(4-methoxyphenyl)-1H-benzimidazol-2-amine] |

| Compound | IC50 (human GPR40) | melting point |
| --- | --- | --- |
| CCCCOc1ccc(-n2c(SCc3ccc(Cl)cc3)nc3cc(Cl)c(Cl)cc32)cc1 [Example 113, 1-(4-Butoxyphenyl)-5,6-dichloro-2-[(4-chlorobenzyl)thio]-1H-benzimidazole] | < 100 nM | 99 to 100 °C |
| CCCCOc1ccc(-n2c(NCc3ccc(C(C)(C)C)cc3)nc3cc(Cl)ccc32)cc1 [Example 86, 1-(4-Butoxyphenyl)-N-(4-tert-butylbenzyl)-5-chloro-1H-benzimidazol-2-amine] | < 100 nM | 158 to 159 °C |
| CCCCOc1ccc(-n2c(SCc3ccc(Cl)cc3)nc3cc(Cl)ccc32)cc1.Cl [Example 122, 1-(4-Butoxyphenyl)-5-chloro-2-[(4-chlorobenzyl)thio]-1H-benzimidazole hydrochloride] | < 100 nM | 83 to 89 °C |
| CCCCOc1ccc(-n2c(NCc3ccc(Cl)cc3)nc3ccc(Cl)cc32)cc1 [Example 76, 1-(4-Butoxyphenyl)-6-chloro-N-(4-chlorobenzyl)-1H-benzimidazol-2-amine] | < 100 nM | 122 to 123 °C |
| CCCCOc1ccc(-n2c(NCc3ccc(Cl)cc3)nc3cc(Cl)c(Cl)cc32)cc1 [Example 101, 1-(4-Butoxyphenyl)-5,6-dichloro-N-(4-chlorobenzyl)-1H-benzimidazol-2-amine] | < 100 nM | 162 to 163 °C |

— patent US20080021069A1, “Receptor Function Regulating Agent” (TAKEDA PHARMACEUTICAL COMPANY LIMITED, priority 2004, published 2008)
